A short description of data set [1]: Miscibility/solubility in heptane and water.
Description: The miscibility/solubility of all ionic liquids in both heptane and water are indicated as well.
The solubility behavior of all thirty-nine geminal dicationic ionic liquids in water and heptane also was explored.
Data set [2] can be described thus: Solvation interaction parameters by inverse gas-liquid chromatography (Abraham model). In kind it is physicochemical. The method, then: The preparation of the capillary columns for inverse gas-liquid chromatographic analysis was performed using a previously described procedure. All capillary columns had efficiencies between 2100 to 2500 plates/meter. Characterization of the capillary columns and probe molecule descriptions are listed in supplemental information. Multiple linear regression analysis (MLRA) and statistical calculations were performed using the program Analyse-it (Microsoft, USA).
Solvation Characteristics. We have previously reported that the Abraham solvation model, a linear free energy approach that utilizes inverse gas-liquid chromatography to describe the solvation properties of a liquid, can be used to characterize room temperature ionic liquids. Described by equation 1, the model provides the so-called “interaction parameters” (r, s, a, b, l) by using multiple linear regression analysis to fit the retention factor (k, determined chromatographically) to the solute descriptors (R2, π2^Hα2H, β2^H, log L^16) for a wide variety of probe solute molecules. […]
Previously we characterized a large number of room temperature ionic liquids in terms of multiple solvation interactions using the solvation parameter model, shown in equation log k=c+rR2+sπ2^H+aα2^H+bβ2^H+l log L^16 [3] This approach utilizes inverse gas-liquid chromatography and allows the use of a large number of probe molecules to deconvolute solute retention in terms of the type and magnitude of individual solvation interactions. The solute descriptors (R2, π2^H, α2^H, .β2^H, log L^16) from Equation 3 are obtained from the literature for many probe molecules containing a variety of functional groups. The retention factor is determined chromatographically. The solute descriptors and retention factors are subjected to multiple linear regression analysis to obtain the interaction parameter coefficients (r, s, a, b, l), which ultimately characterize the stationary phase: r is the ability of the diionic liquid containing-stationary phase to interact with .π0 and n electrons of the solute, s is a measure of the dipolarity/polarizability of the diionic liquid containing-stationary phase, a defines the diionic liquid containing-stationary phase hydrogen bond basicity, b is a measure of the hydrogen bond acidity, and l refers to the ability of the diionic liquid containing-stationary phase to separate adjacent members of a homologous series.
Test solutes used to determine interaction parameters and solvation thermodynamics were dissolved in dichloromethane. […] Split injection and flame ionization detection were utilized with injection and detection temperatures of 250° C. Helium was used as the carrier gas with a column inlet pressure of 3.1 psi and flow rate of 1.0 mL/min. Methane was used to determine the dead volume of the column. Multiple linear regression analysis and statistical calculations were performed using the program Analyze-it (Microsoft).

The conditions of data set [3]: values taken from reference 31, cited from earlier work.

Here are results for 11 molecules from patent US8734673B2, “Boron selective ionic liquids and polymeric ionic liquids, methods of making and methods of use thereof” (The University of Toledo, priority 2008, dated 2014).

Read-outs that look alike come from different tables or passages of the source.

Consider “1,3-di(2,3-dimethylimidaolium)propane di-bromide [C3(m2im)2-Br]”, for which, in data set [1], the “Miscibility with Heptane” value is “Immiscible” and the “Miscibility with Water” value was “Miscible”.

With “1,3-di(2,3-dimethylimidazolium)propane di-hexafluorophosphate [C3(m2im)2-PF6]”, in data set [1], the “Miscibility with Heptane” value was “Immiscible” and the “Miscibility with Water” value is on record as “Immiscible”.

As for `CCCCn1cc[n+](C)c1.O=S(=O)([N-]S(=O)(=O)C(F)(F)F)C(F)(F)F` [BMIM-NTf2, 1-butyl-3-methylimidazolium bis[(trifluoromethylsulfonyl)imide], reference compound], in data set [2] (40° C.), the “Interaction parameter a (hydrogen bond basicity)” value was found to be 2.02, the “Interaction parameter b (hydrogen bond acidity)” value (from here on “Interaction parameter b”) came to 0.36, the Interaction parameter c is −2.87 and the “Interaction parameter l (dispersion forces)” value (“Interaction parameter l” below) worked out at 0.63. In data set [2] (40° C.), the “Interaction parameter r (interaction via nonbonding and π-electrons)” value (shortened to “Interaction parameter r”) was found to be 0; the “Interaction parameter s (dipolarity/polarizability)” value is listed as 1.89. Further, in data set [2] (70° C.), the “Interaction parameter a (hydrogen bond basicity)” value came to 1.75, the “Interaction parameter b” value came out at 0.38, the Interaction parameter c is −3.03 and the “Interaction parameter l” value stood at 0.56. For the same molecule, in data set [2] (70° C.), the “Interaction parameter r” value was determined as 0; the “Interaction parameter s (dipolarity/polarizability)” value amounted to 1.67. In addition, in data set [2] (100° C.), the “Interaction parameter a (hydrogen bond basicity)” value came out at 1.55, the “Interaction parameter b” value was determined as 0.24, the Interaction parameter c is −3.13 and the “Interaction parameter l” value was determined as 0.49. Moreover, in data set [2] (100° C.), the “Interaction parameter r” value was 0; the “Interaction parameter s (dipolarity/polarizability)” value is on record as 1.60.

Turning to `CCCC[N+]1(C)CCCC1.O=S(=O)([N-]S(=O)(=O)C(F)(F)F)C(F)(F)F` [BMPY-NTf2, 1-butyl-1-methylpyrrolidinium bis[(trifluoromethylsulfonyl)imide]], in data set [3] (40° C.), the “Interaction parameter a (hydrogen bond basicity)” value is reported as 2.08, the “Interaction parameter b” value is given as 0.16, the Interaction parameter c is recorded as −2.78 and the “Interaction parameter l” value is recorded as 0.68. Further, in data set [3] (40° C.), the “Interaction parameter r” value is given as 0; the “Interaction parameter s (dipolarity/polarizability)” value is 1.69. Moreover, in data set [3] (70° C.), the “Interaction parameter a (hydrogen bond basicity)” value is listed as 1.78, the “Interaction parameter b” value is recorded as 0, the Interaction parameter c is listed as −2.80 and the “Interaction parameter l” value is 0.56. For the same molecule, in data set [3] (70° C.), the “Interaction parameter r” value was 0; the “Interaction parameter s (dipolarity/polarizability)” value is given as 1.53. In data set [3] (100° C.), the “Interaction parameter a (hydrogen bond basicity)” value is 1.55, the “Interaction parameter b” value is listed as 0, the Interaction parameter c was −2.92 and the “Interaction parameter l” value is 0.48. In data set [3] (100° C.), the “Interaction parameter r” value was 0; the “Interaction parameter s (dipolarity/polarizability)” value is 1.44.

With `Cn1cc[n+](CCC[n+]2ccn(C)c2)c1.F[B-](F)(F)F.F[B-](F)(F)F` [C3(mim)2-BF4, 1,3-di(3-methylimidazolium)propane di-tetrafluoroborate], in data set [1], the “Miscibility with Heptane” value is listed as “Immiscible” and the “Miscibility with Water” value was “Miscible”.

As to `Cn1cc[n+](CCC[n+]2ccn(C)c2)c1.[Br-].[Br-]` [C3(mim)2-Br, 1,3-di(3-methylimidazolium)propane di-bromide], in data set [1], the “Miscibility with Heptane” value was “Immiscible” and the “Miscibility with Water” value is recorded as “Miscible”.

For `Cn1cc[n+](CCC[n+]2ccn(C)c2)c1.F[P-](F)(F)(F)(F)F.F[P-](F)(F)(F)(F)F` [C3(mim)2-PF6, 1,3-di(3-methylimidazolium)propane di-hexafluorophosphate], in data set [1], the “Miscibility with Heptane” value is listed as “Immiscible” and the “Miscibility with Water” value is “Immiscible”.

As to `C[N+]1(CCC[N+]2(C)CCCC2)CCCC1.F[P-](F)(F)(F)(F)F.F[P-](F)(F)(F)(F)F` [C3(mpy)2-PF6, 1,3-di(methylpyrrolidinium)propane di-hexafluorophosphate], in data set [1], the “Miscibility with Heptane” value was “Immiscible” and the “Miscibility with Water” value was “Immiscible”.

With `C[n+]1ccn(CCCCn2cc[n+](C)c2)c1.O=S(=O)([N-]S(=O)(=O)C(F)(F)F)C(F)(F)F.O=S(=O)([N-]S(=O)(=O)C(F)(F)F)C(F)(F)F` [C4(mim)2-NTf2], in data set [2] (40° C.), the “Interaction parameter a (hydrogen bond basicity)” value amounted to 2.11, the “Interaction parameter b” value was 0.50, the Interaction parameter c was −2.94 and the “Interaction parameter l” value came to 0.56. Also, in data set [2] (40° C.), the “Interaction parameter r” value is given as 0.25; the “Interaction parameter s (dipolarity/polarizability)” value worked out at 2.01. Also, in data set [2] (70° C.), the “Interaction parameter a (hydrogen bond basicity)” value came out at 1.77, the “Interaction parameter b” value is recorded as 0.45, the Interaction parameter c is on record as −2.91 and the “Interaction parameter l” value was 0.44. Besides, in data set [2] (70° C.), the “Interaction parameter r” value is on record as 0.22; the “Interaction parameter s (dipolarity/polarizability)” value was 1.78. Further, in data set [2] (100° C.), the “Interaction parameter a (hydrogen bond basicity)” value amounted to 1.57, the “Interaction parameter b” value is reported as 0.33, the Interaction parameter c was −3.06 and the “Interaction parameter l” value stood at 0.37. Moreover, in data set [2] (100° C.), the “Interaction parameter r” value was 0.20; the “Interaction parameter s (dipolarity/polarizability)” value came to 1.69.

Consider `Cn1cc[n+](CCCCCCCCC[n+]2ccn(C)c2)c1.O=S(=O)([N-]S(=O)(=O)C(F)(F)F)C(F)(F)F.O=S(=O)([N-]S(=O)(=O)C(F)(F)F)C(F)(F)F` [C9(mim)2-NTf2, 1,9-di(3-methylimidazolium)nonane di-bis[(trifluoromethyl)sulfonyl]imidate], for which, in data set [2] (40° C.), the “Interaction parameter a (hydrogen bond basicity)” value is on record as 1.83, the “Interaction parameter b” value turned out to be 0.47, the Interaction parameter c is given as −2.86 and the “Interaction parameter l” value amounted to 0.62. In addition, in data set [2] (40° C.), the “Interaction parameter r” value is recorded as 0.16; the “Interaction parameter s (dipolarity/polarizability)” value was determined as 1.81. In data set [2] (70° C.), the “Interaction parameter a (hydrogen bond basicity)” value was found to be 1.75, the “Interaction parameter b” value was found to be 0.20, the Interaction parameter c is listed as −2.95 and the “Interaction parameter l” value was 0.51. Also, in data set [2] (70° C.), the “Interaction parameter r” value is on record as 0.11; the “Interaction parameter s (dipolarity/polarizability)” value is given as 1.76. For the same molecule, in data set [2] (100° C.), the “Interaction parameter a (hydrogen bond basicity)” value is 1.50, the “Interaction parameter b” value is listed as 0.15, the Interaction parameter c is reported as −3.06 and the “Interaction parameter l” value was determined as 0.43. For the same molecule, in data set [2] (100° C.), the “Interaction parameter r” value is recorded as 0.11; the “Interaction parameter s (dipolarity/polarizability)” value is on record as 1.64.

Take `O=S(=O)([N-]S(=O)(=O)C(F)(F)F)C(F)(F)F.O=S(=O)([N-]S(=O)(=O)C(F)(F)F)C(F)(F)F.c1ccc(Cn2cc[n+](CCCCCCCCCCCC[n+]3ccn(Cc4ccccc4)c3)c2)cc1` [C12(benzim)2-NTf2, 1,12-di(3-benzylimidazolium)dodecane di-bis[(trifluoromethyl)sulfonyl]imidate]: in data set [2] (40° C.), the “Interaction parameter a (hydrogen bond basicity)” value is listed as 1.96, the “Interaction parameter b” value is on record as 0.84, the Interaction parameter c was −2.94 and the “Interaction parameter l” value came out at 0.66. In data set [2] (40° C.), the “Interaction parameter r” value is 0.11; the “Interaction parameter s (dipolarity/polarizability)” value was found to be 1.65. Besides, in data set [2] (70° C.), the “Interaction parameter a (hydrogen bond basicity)” value was 1.75, the “Interaction parameter b” value is 0.57, the Interaction parameter c is −3.07 and the “Interaction parameter l” value is 0.56. Besides, in data set [2] (70° C.), the “Interaction parameter r” value is recorded as 0.07; the “Interaction parameter s (dipolarity/polarizability)” value is given as 1.62. Further, in data set [2] (100° C.), the “Interaction parameter a (hydrogen bond basicity)” value came to 1.44, the “Interaction parameter b” value turned out to be 0.52, the Interaction parameter c is −3.12 and the “Interaction parameter l” value turned out to be 0.46. Also, in data set [2] (100° C.), the “Interaction parameter r” value was found to be 0; the “Interaction parameter s (dipolarity/polarizability)” value worked out at 1.47.
